# Assay results published in patent US8337899B2, “Solid pharmaceutical dispersions with enhanced bioavailability” (Bend Research, Inc., priority 1997, dated 2012).
# Key:
# [1] = centrifuge in vitro dissolution test in MFD solution; format: physicochemical; details: centrifuge method; for MSSC (maximum supersaturated concentration): MFD solution pH 6.5, 37° C., supernatant; for C90: concentration at 90 minutes; for C1200: concentration at 1200 minutes
# Method: This example discloses an in vitro dissolution test termed the “centrifuge” method. This method was used to test the dissolution of material made by essentially the same method as that described in Example 1 except that the concentration of Compound 1 was decreased by a factor of 2 to 66.5 mg such that the ratio of compound to polymer was 1:1. (see Example 7, Table I).
# In a 37° C. controlled temperature box, 1.8 mg of solid product from Example 1 was accurately weighed into an empty microcentrifuge tube (polypropylene, Sorenson Bioscience Inc.). The theoretical maximum concentration of compound in solution (e.g., if all compound dissolved) was 383 μgA/ml [1.8 mg dispersion (1000 μg/1 mg) (0.5 μg compound/μg dispersion) (0.764 compound assay)/1.8 ml=[…]]. This value is termed the theoretical maximum supersaturated concentration and is abbreviated Theoretical MSSC. 1.8 mL of a 37C phosphate buffered saline solution (8.2 mM NaCl, 1.1 mM Na2HPO4, 4.7 mM KH2PO4, pH 6.5, 290 mOsm/kg) containing 14.7 mM sodium taurocholic acid (Fluka) and 2.8 mM 1-palmitoyl-2-oleoyl-sn-glycero-3-phosphocholine (Avanti Polar Lipids) was added to the tube. The centrifuge tube was closed and a timer was started. The tube was then mixed continuously at the highest speed on a vortex mixer (Fisher Vortex Genie 2) for 60 seconds. The tube was transferred to a centrifuge (Marathon, Model Micro A) allowed to stand undisturbed for six minutes, then centrifuged at 13,000 G for 60 seconds. A 25 uL sample was removed from the solids-free supernatant in the centrifuge tube via pipette (Gilson Pipetman P-100) ten minutes after the timer was started. Solids in the centrifuge tube were resuspended by mixing the sample continuously on the vortex mixer for 30 seconds. The centrifuge tube was returned to the centrifuge and allowed to stand undisturbed until the next sample was taken. Each sample was centrifuged, sampled and resuspended as described previously. Each sample was diluted 1:1 with a solution containing 60/40 1.7 wt % ammonium ascorbate/acetonitrile, and the concentration of compound was determined by HPLC (Hewlett Packard 1090 HPLC, Phenomenex Ultracarb ODS 20 analytical column, absorbance measured at 215 nm with a diode array spectrophotometer). […] […] The maximum compound concentration observed, 125 μgA/ml, is termed the maximum supersaturated concentration of compound and is abbreviated MSSC.
# [2] = syringe/filter in vitro dissolution test in MFD solution; format: physicochemical; details: for C90: concentration at 90 minutes; for MSSC (maximum supersaturated concentration): syringe/filter method, MFD solution pH 6.5, 37° C., 0.45 μm filtrate
# Method: This example discloses an in vitro dissolution test termed the “syringe/filter” method. In this method the concentration of test compound in solution is determined as a function of time. Test solution is held in a syringe from which samples are expelled through a filter at pre-determined time points. In between expelling samples from the syringe, the syringe is rotated (50 rpm) on a wheel held in an oven at 37° C.
# A 20 GA hypodermic needle was attached to the syringe, and 10 mL of a model-fasted duodenal (MFD) solution at 37° C. was drawn into the syringe.
# The MFD solution was prepared using the following procedure. […] This mixture was then mixed thoroughly by vortex mixer (Fisher Vortex Genie), and the solvent removed rapidly by roto-evaporator (Rotavapor RE121, Büchi), leaving a dry white surface dispersion coating the flask. The surface dispersion was then reconstituted with 200 mL of the 37° C. phosphate buffered saline.
# The needle was then replaced with a 13 mm, 0.45 μm polyvinylidine diflouride syringe filter (Scientific Resources, Titan), and the syringe was vigorously shaken for 30 sec. After 30 sec, 6 drops of the solution was expelled and a subsequent 13 drop sample was delivered to a test tube. After expelling the sample, the syringe plunger was drawn back to pull an air bubble into the syringe to aid in subsequent mixing and the syringe placed back on a rotating wheel in a 37° C. oven. […] The remaining solution in the syringe was mixed by rotating on a wheel at 50 rpm in a 37° C. temperature-controlled box.
# [3] = solid amorphous dispersions in HPMCAS, pH 4.0; cited from earlier work
# aqueous solubility = format: physicochemical; details: pH 6.5
smiles,measurement,setting,value
"O=C(N[C@@H](Cc1ccccc1)[C@@H](O)C(=O)N1C[C@@H](O)[C@@H](O)C1)c1cc2cc(Cl)ccc2[nH]1 (relative stereo) [Example C17, 1H-Indole-2-caboxamide, 5-chloro-N-[3-(3,4-dihydroxy-1-pyrrolidinyl)-2-hydroxy-3-oxo-1-(phenylmethnyl)propyl]-, [R—[R*,S*-(cis)]]-]",MSSC (maximum supersaturated concentration),[1],194 μgA/mL
same,C90,[1],158 μgA/mL
same,C1200,[1],194 μgA/mL
"CON(C)C(=O)C(O)[C@H](Cc1ccccc1)NC(=O)c1cc2cc(Cl)ccc2[nH]1 (stereo in doubt) [Compound 1, [R—(R*,S*)]-5-chloro-N-[2-hydroxy-3-(methoxymethylamino)-3-oxo-1-(phenylmethyl)propyl]-1-H-indole-2-carboxamide]",equilibrium solubility,[2]; in the dissolution medium (MFD),9 μgA/ml
"CON(C)C(=O)C(O)[C@H](Cc1ccccc1)NC(=O)c1cc2cc(Cl)ccc2[nH]1 (stereo in doubt) [Example C1, [R—(R*,S*)]-5-chloro-N-[2-hydroxy-3-(methoxymethylamino)-3-oxo-1-(phenylmethyl)propyl]-1-H-indole-2-carboxamide]",C90,"[2]; syringe/filter, MFD, 37° C.",10 μgA/mL
same,C180,"[2]; concentration at 180 minutes, syringe/filter, MFD, 37° C.",8.5 μgA/mL
same,C1200,"[2]; concentration at 1200 minutes, syringe/filter, MFD, 37° C.",9 μgA/mL
same,MSSC (maximum supersaturated concentration),[2],10 μgA/mL
CCC(CC)Oc1cc(C)nc(Oc2c(C)cc(C)cc2C)c1C [Example C5],MSSC (maximum supersaturated concentration),[1],18 μgA/mL
same,C90,[1],18 μgA/mL
same,C1200,[1],13 μgA/mL
"COC1=CC(=O)CC(C)C12Oc1c(Cl)c(OC)cc(OC)c1C2=O (stereo not drawn) [Example C11, 7-chloro-4,6-dimethoxy-courmaran-3-one-2-spiro-1′-(2′-methoxy-6′-methylcyclohex-2′en-4′-one)]",C60,"[2]; concentration at 60 minutes, syringe/filter, MFD, 37° C.",17 μgA/mL
same,C90,"[2]; syringe/filter, MFD, 37° C.",15 μgA/mL
same,MSSC (maximum supersaturated concentration),[2],18 μgA/mL
"O=C1NC(=O)C(c2ccccc2)(c2ccccc2)N1 [Example C14, 5,5-diphenylhydantoin]",C3,[1]; concentration at 3 minutes,14 μgA/mL
same,C10,[1]; concentration at 10 minutes,20 μgA/mL
same,C20,[1]; concentration at 20 minutes,28 μgA/mL
same,C40,[1]; concentration at 40 minutes,34 μgA/mL
same,C90,[1],50 μgA/mL
"CCC(CC)Nc1cc(C)nc(Oc2c(C)cc(C)cc2C)c1C [Example C16, [3,6-dimethyl-2-(2,4,6-trimethyl-phenoxy)-pyridin-4-yl]-(1-ethyl-propyl)-amine]",MSSC (maximum supersaturated concentration),[1],22 μgA/mL
same,C90,[1],22 μgA/mL
same,C1200,[1],22 μgA/mL
"CC[C@H]1OC(=O)C[C@@H](O)[C@H](C)[C@@H](O[C@@H]2O[C@H](C)[C@@H](O[C@H]3C[C@@](C)(O)[C@@H](OC(=O)Cc4ccc(OC)cc4)[C@H](C)O3)[C@H](N(C)C)[C@H]2O)[C@@H](CC=O)C[C@@H](C)C(=O)/C=C/C(C)=C/[C@@H]1CO[C@@H]1O[C@H](C)[C@@H](O)[C@@H](OC)[C@H]1OC [MAT, 4″-0-(4-methoxyphenyl)acetyltylosin]",supersaturated concentration relative to crystalline MAT,[3],9 fold
"Cc1ccc2c(c1)N(CC(=O)NC(C)(C)C)C(=O)C(NC(=O)Nc1cccc(Cl)c1)CC2c1ccccc1 (stereo not drawn) [N-tert-butyl-2-{3-[3-(3-chloro-phenyl)-unreido]-8-methyl-2-oxo-5-phenyl-2,3,4,5-tetrahydrobenxo[b]azepin-1-yl}-acetamide]",aqueous solubility,aqueous solubility,less than 3.0 μg/ml
